Experimental data published in patent publication US20140303216A1, “COMPOSITIONS AND METHODS FOR INDUCING DISRUPTION OF BLOOD VASCULATURE AND FOR REDUCING ANGIOGENESIS” (BOARD OF REGENTS, THE UNIVERSITY OF TEXAS SYSTEM, priority 2011, published 2014).

Legend:
[1] = system: human umbilical vein endothelial cells (HUVECs); assay: HUVEC tube formation, in vitro angiogenesis assay; assay type: cell-based
Method: Human umbilical vein endothelial cells (HUVECs) were purchased from Clonetics, and were used between passages 4 and 9. HUVECs were cultured on 0.1% gelatin-coated (Sigma) plates in endothelial growth medium-2 (EGM-2; Clonetics) in tissue culture flasks at 37° C. in a humidified atmosphere of 5% CO2. HUVECs (10^4 cells) were seeded in a 96-well plate coated with 50 μl of ECMatrix (Chemicon) or Matrigel (BD Bioscience) according to the manufacturer's instructions. Cells were incubated for 16 h on EGM-2 containing thiabendazole, dissolved in 1% DMSO. Negative control cells were treated with 1% DMSO in the same manner. As a positive control, siRNA versus the human HoxA9 sequence^30 was transfected into HUVECs using Lipofectamine RNAiMAX (Invitrogen) according to the manufacturer's instructions. Tube formation was observed using an inverted microscope (Nikon, eclipse TS100), and branch points were measured using ImageJ software (http://rsb.info.nih.gov/ij).

VEGF = VEGF levels in HT1080 cells (Western blotting, ELISA); assay type: cell-based, human; conditions: 250 μM TBZ, 24 hours
Method: Cells were lysed in cell lysis buffer (Cell Signaling Technology) containing 1 mM PMSF, and analyzed by SDS-PAGE and western blotting using anti-VEGF (Santa Cruz, A-20) or anti-GAPDH (Cell Signaling Technology) antibodies. The secreted VEGF level in culture media was determined by enzyme-linked immunosorbent assay (ELISA; R&D) according to the manufacturer's instructions.

HT1080 cells = assay: HT1080 cell proliferation in vitro; assay type: cell-based, human; conditions: cultured in vitro
Description: FIG. 21. […] Error bars represent mean±1 s.d. across 14-15 fields of view of 200× magnification confocal microscopy cell images across 2 independent experiments. Scale bar, 100 μm.

mitochondria = assay: Mitochondrial mass and membrane potential (MitoTracker Green/Red); assay type: cell-based
[2] = system: vasculature within kdr:GFP frogs; assay: Time-lapse fluorescence microscopy of vasculature in kdr:GFP Xenopus embryos; assay type: in vivo, Xenopus laevis
Description: Immunohistochemistry and kdr:GFP transgenic Xenopus laevis were imaged on an inverted Zeiss LSM5 Pascal confocal microscope and Zeiss 5-LIVE Fast Scanning confocal microscope. Confocal images were processed and cropped in Imaris software (BITPLANE) and Adobe Illustrator and Adobe Photoshop for compilation of Figures.
(§1) To analyze action of TBZ precisely on inhibition of angiogenesis and disruption of vasculature, we tested TBZ on two different developmental stages. Xenopus late tailbud embryos at stage 31 were selected for testing the inhibitory effect of TBZ on angiogenesis (FIG. 3A-D). This embryonic stage coincides with the onset of intersomitic vein (ISV) angiogenesis, the process of forming smaller blood vessels by sprouting from pre-existing blood vessels. To observe disruption of existing vasculature, we selected stage 35/36 embryos in which the posterior cardinal vein (PCV) and ISV are already developed (FIG. 15).
As a direct test of the vascular disrupting activity of TBZ, we performed time-lapse imaging of developing vasculature. Using Kdr-GFP transgenic embryos^12 and time-lapse confocal microscopy^22, we could effectively image developing vasculature in vivo for periods of up 20 hours. During this time, the growth of existing blood vessels and the sprouting of new vasculature could be easily followed (FIG. 16). […] Upon longer exposures, endothelial cells scattered and many underwent dramatic rounding (FIGS. 5A, 17).

tubulin proteins = assay: Quantitative mass spectrometry of tubulins in HUVECs; assay type: cell-based, human; conditions: 250 μM TBZ, 24 hours
Method: Following alkylation, samples were diluted in digestion buffer (50 mM Tris-HCl, pH 8.0, 2 mM CaCl2) to a final 2,2,2-trifluoroethanol concentration of 5% (v/v) and digested using proteomics grade trypsin (Sigma) at 1:50 (enzyme/protein) concentration and incubated at 37° C. for 4-5 h. Digestion was halted with the addition of 1% formic acid (v/v), and sample volume was reduced to 200 μl by SpeedVac centrifugation prior to loading on […] (Thermo). Samples were eluted (60% acetonitrile, 0.1% formic acid), reduced to 10 μl by SpeedVac centrifugation, and resuspended in sample buffer (5% acetonitrile, 0.1% formic acid). Tryptic peptides were then filtered through Microcon 10-kDa centrifugal filters (Millipore), and collected as flow-through. Peptides were chromatographically separated on a Zorbax reverse-phase C-18 column (Agilent) via a 230 min 5-38% acetonitrile gradient, then analyzed by on-line nanoelectrospray-ionization tandem mass spectrometry on an LTQ-Orbitrap (Thermo Scientific). […] Differential expression of proteins across TBZ-treated and control samples was quantified from the MS2 spectral count data using the APEX method of relative quantification^32.

[3] = system: developing Xenopus embryos; assay: Xenopus embryo angiogenesis, in situ hybridization for erg/apinr and kdr:GFP imaging; assay type: in vivo, Xenopus laevis
Description: Female adult Xenopus were ovulated by injections of human chorionic gonadotropin, and eggs were fertilized in vitro and dejellied in 3% cysteine (pH 7.9) and subsequently reared in ⅓×Marc's modified Ringer's (MMR) solution. For microinjections, embryos were placed in a solution of 2% Ficoll in ⅓×MMR solution, injected using forceps and an Oxford universal manipulator, reared in 2% Ficoll in ⅓×MMR to stage 9, then washed and reared in ⅓×MMR solution alone. For bilateral rab11b knock-down experiments, the posterior cardinal vein and intersomitic veins were targeted by injecting Morpholino antisense oligonucleotides (MOs) into the two ventral cells equatorially at the four-cell stage. For unilateral knockdown, only one ventral cell was injected. MOs were injected at 40 ng per blastomere. For the experiments to see the drug effects, embryos were placed in a solution of each chemical dissolved in 1% DMSO diluted in ⅓×MMR during indicated stages. For bead micro-surgery implantation, Affi-Gel Blue Gel beads (Bio-Rad) were soaked with 0.7 mg/ml recombinant mouse VEGF 164 aa (R&D systems) or BSA as a control. Whole-mount in situ hybridization for erg and apinr was performed as described^29.
as §1

## c1ccc2[nH]c(-c3cscn3)nc2c1 [TBZ, 4-(1H-1,3-benzodiazol-2-yl)-1,3-thiazole]
[1]; 100 and 250 μM TBZ in 1% DMSO, 16 h
  angiogenesis (tube formation) in HUVECs: inhibited angiogenesis in a dose-dependent manner
[1]; human cells in vitro
  concentration at which angiogenesis inhibition was observed: 100 to 250 µM
VEGF
  level of VEGF expressed by HT1080 cells (Western blotting): did not alter
  level of VEGF secreted by HT1080 cells (ELISA): did not alter
HT1080 cells
  rate of proliferation in HT1080 cells: did not alter
mitochondria
  mitochondrial mass (MitoTracker Green signal): no differences
  mitochondrial membrane potential (ratio of MitoTracker Red signal to Mitotracker Green signal): no differences
[2]; Kdr-GFP transgenic embryos
  exposure time after which established blood vessels disintegrated: approximately 90 minutes
[2]; Kdr-GFP transgenic embryos, time-lapse confocal microscopy
  growth and sprouting of blood vessels: completely prevented
[2]; in vivo
  persistence of vascular gene expression in dispersed, rounded kdr-GFP+ endothelial cells after treatment: up to 17 hours
[2]; in vivo imaging of the vasculature
  time within which endothelial cells retract from one another and round up: ≤ 2 h
[2]; washout after TBZ-induced cell dispersal and rounding
  recovery of vasculature after washout of the drug: significant re-spreading of endothelial cells and re-formation of blood vessels
Tubulin proteins
  abundance of several tubulin proteins: significant reduction
[3]; Xenopus embryos in vivo
  concentration at which angiogenesis inhibition was observed: 100 to 250 µM
[3]; Xenopus embryos, 250 μM TBZ in 1% DMSO, treated at stage 31, imaged at stages 35-36
  angiogenesis, expression of vascular-specific genes apinr and erg: severely impaired angiogenesis
[3]; treatment at later stages (stage 36), in situ hybridization versus apinr at stage 39
  disruption of pre-existing vasculature: overt breakdown of established vasculature
